From US7863308B2, “Substituted thiophenes” (Auspex Pharmaceuticals, Inc., priority 2007, dated 2011)

Columns and labels:
CYP2C9 = CYP2C9 (Homo sapiens, UniProt P11712); assay: In vitro inhibition of human cytochrome P450 enzymes: CYP2C9 (dibenzylfluorescein fluorometric assay)
Method: (§1) In Vitro Inhibition of Human Cytochrome P45 Enzymes
(§2) Solution A: NADPH-Regenerating System
(§3) To a glass tube on ice were added sequentially: Water (8 mL) in NADP+ (20 mg), glucose-6-phosphate (20 mg), magnesium chloride hexahydrate (13.3 mg) and glucose-6-phosphate dehydrogenase (60 units).
To a glass tube on ice were added sequentially: 0.5 M KH2PO4 (pH 7.4, 2.4 mL), water (8.988 mL), CYP2C9 (600 μL of 1 picomol/microliter), and dibenzylfluorescein (2 mM in 100% acetonitrile, 12 microliter).
(§4) Solution A was transferred to a 96-well black plate (80 microliter per well), followed by various concentrations of a solution of Compound in 10% acetonitrile-water (20 microliter per well). The reaction was initiated by adding 100 microliter of solution B to each well of the 96-well plate. The plate was incubated for 40 minutes at 37° C. in the dark. The reaction was stopped by adding 75 microliters of stop buffer (2 N NaOH) to each well, and incubating at 37° C. for 2 hours. The end point was measured in a fluorometer plate reader at λex=485 nm and λem=538 nm.

CYP3A4 = CYP3A4 (Homo sapiens, UniProt P08684); details: 10 min, pH 7.4
Method: as §1, §2, §3
To a glass tube on ice were added sequentially: 0.5 M KH2PO4 (pH 7.4, 9.6 mL), water (2.328 mL), CYP3A4 (60 μL of 1 picomol/microliter), and dibenzylfluorescein (2 mM in 100% acetonitrile, 12 microliter).
as §4, with “20%” for “10%”, “10” for “40”, “The reaction was stopped by adding 75 microliters of stop buffer (2 N NaOH) to each well, and incubating at 37° C. for 2 hours.” left out

CYP2C9, sequence (P11712 whole entry): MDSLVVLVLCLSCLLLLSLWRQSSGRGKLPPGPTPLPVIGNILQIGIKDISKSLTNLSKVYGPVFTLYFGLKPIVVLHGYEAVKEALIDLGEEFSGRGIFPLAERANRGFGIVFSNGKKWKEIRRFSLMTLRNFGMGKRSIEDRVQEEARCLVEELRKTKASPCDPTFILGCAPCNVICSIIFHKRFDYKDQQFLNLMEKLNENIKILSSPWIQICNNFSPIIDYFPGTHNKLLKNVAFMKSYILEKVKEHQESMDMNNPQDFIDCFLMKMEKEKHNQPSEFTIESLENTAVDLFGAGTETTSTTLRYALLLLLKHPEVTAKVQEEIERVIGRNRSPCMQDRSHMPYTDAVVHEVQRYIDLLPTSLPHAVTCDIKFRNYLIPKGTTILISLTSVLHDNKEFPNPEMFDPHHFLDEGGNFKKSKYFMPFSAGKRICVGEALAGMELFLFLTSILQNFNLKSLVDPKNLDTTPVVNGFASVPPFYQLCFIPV
CYP3A4, sequence (P08684 whole entry): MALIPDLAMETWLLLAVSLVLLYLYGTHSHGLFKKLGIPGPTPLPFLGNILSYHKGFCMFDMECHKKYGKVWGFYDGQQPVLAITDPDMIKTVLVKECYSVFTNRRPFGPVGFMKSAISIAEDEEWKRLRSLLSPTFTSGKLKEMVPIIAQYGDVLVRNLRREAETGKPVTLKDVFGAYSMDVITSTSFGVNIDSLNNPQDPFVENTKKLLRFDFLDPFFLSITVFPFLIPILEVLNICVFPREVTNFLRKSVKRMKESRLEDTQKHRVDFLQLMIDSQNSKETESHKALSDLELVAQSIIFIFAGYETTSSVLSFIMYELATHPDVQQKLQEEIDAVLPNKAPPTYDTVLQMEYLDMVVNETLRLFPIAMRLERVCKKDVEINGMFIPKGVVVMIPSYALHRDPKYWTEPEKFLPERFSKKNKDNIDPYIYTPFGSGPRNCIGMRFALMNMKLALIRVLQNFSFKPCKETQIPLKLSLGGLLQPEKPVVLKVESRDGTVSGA

Structure (SMILES)	IC50 (CYP2C9) [nM]	times the amount of deuterated compound to inhibit CYP2C9 as compared to the non-isotopically enriched drug (CYP2C9; human, 40 min, pH 7.4) [times]	times the amount of deuterated compound to inhibit CYP3A4 as compared to the non-isotopically enriched drug (CYP3A4) [times]
Cc1cc2c(cc1CC(=O)c1sccc1S(=O)(=O)Nc1onc(C)c1Cl)OCO2 [sixtaxsentan, 2-[2-(6-Methyl-benzo[1,3]dioxol-5-yl)-acetyl]-thiophene-3-sulfonic acid (4-chloro-3-methyl-isoxazol-5-yl)-amide, reference compound]	100	–	–
[2H]C1([2H])Oc2cc(C)c(CC(=O)c3sccc3S(=O)(=O)Nc3onc(C)c3Cl)cc2O1 [Example 2, d2-2-[2-(6-Methyl-benzo[1,3]dioxol-5-yl)-acetyl]-thiophene-3-sulfonic acid (4-chloro-3-methyl-isoxazol-5-yl)-amide]	320	3.2	2.3
